Values quoted from earlier work as cited in US6620432B2, “Phenytoin sodium pharmaceutical compositions” (Mylan Pharmaceuticals Inc., priority 1999, dated 2003).
Counter-ions that a name gives are not always drawn.

Conditions: general statement, no test described

| Structure (SMILES) | Solubility in water |
| --- | --- |
| O=C1NC(=O)C(c2ccccc2)(c2ccccc2)N1 [Phenytoin sodium, monosodium salt of 5,5-diphenyl hydantoinate] | highly water soluble |
| O=C1NC(=O)C(c2ccccc2)(c2ccccc2)N1 [phenytoin] | water insoluble |
